In PMC9650263, “Synthesis and appraisal of dalbergin-loaded PLGA nanoparticles modified with galactose against hepatocellular carcinoma: In-vitro, pharmacokinetic, and in-silico studies” (Frontiers in Pharmacology, 2022):
In brackets after ≈: the same amount, converted by molar mass.

Experiments:
[1] = Oral pharmacokinetic study, HPLC quantification in plasma; format: in vivo, albino Wistar rats; settings: rat plasma, DL equivalent 100 mg/kg
Procedure: DL, DLF, and DLMF were administered orally to albino Wistar rats at a dose of DL equivalent to 100 mg/kg (Approval No: IU/IAEC/20/01), and after the first treatment, the blood samples were collected through retro-orbital plexus of the animals at 0.083, 0.25, 0.5, 1, 2, 4, 8, 12, 16, 24, and 48 h. The serum was isolated from the blood by centrifugation for 10 min at 10,000 rpm. The serum samples were kept at -20 °C until quantification by HPLC analysis.
A precise and accurate bioanalytical approach was devised for drug quantification in plasma samples. ACN was used to make 1 mg/ml stock solution of DL, and stock solution in ACN was used to make working standard solutions of 0.02, 0.1, 0.2, 0.5, 1, 2, 5, 10, 50, and 100 μg/ml. Overall, separate tubes containing 100 […] and 100 […] were vortexed for 30 min. The tubes were then spun at 13,000 rpm for 5 min. The supernatant was collected, transferred to fresh tubes, and allowed to dry overnight at a temperature of 40°C. After that, the tubes were reconstituted with 100 μL of ACN, vortexed for 5 minutes, and 20 μL of supernatant was injected into HPLC to quantify DL. The working solution concentrations were 0.01, 0.05, 0.1, 0.25, 0.5, 1, 2.5, 5.0, 25.0, and 50.0 μg/ml. Low-quality control (LQC), medium quality control (MQC), and high-quality control (HQC) samples were created with different quantities of 0.005, 0.5, and 40 μg/ml, respectively. It was necessary to create quality control samples and triplicate calibrations for each concentration. A test tube containing 100 μL of test plasma and 100 μL of ACN was vortexed for 30 min to create the test samples. To assess the final outcomes, WinNonlin version 1.5.3 was used ([Nisha et al., 2020a]; [Kumar, P., et al., 2018]; [Nisha et al., 2020b]).

[2] = In vitro drug release study; format: physicochemical; settings: up to 48 h, 37°C; media pH 1.2 and 7.4 described, medium of the values not stated
Procedure: At pH values of 1.2 and 7.4, the drug release perspectives of DLF and DLMF were studied in both simulated gastric and simulated intestinal fluids. A flask was placed in an incubator with a water bath continually swirling (100 rev/min) and kept at a temperature of 37°C. The flask was filled with 10 ml of the appropriate medium and weighed amounts of DLF and DLMF that were sufficient for 10 mg of DL. The dissolving solution in the flask was then routinely replaced with new media at regular intervals, after which 2 ml of the sample was collected for DL detection. The samples were analyzed at 254 nm using a UV-Vis Spectrometer (Labtronics-2910, India), which was utilized to quantify the DL release. Triplicate dissolution tests were carried out. The data was analyzed to determine release kinetics ([Song, X., et al., 2018]; [Kanoujia, J., et al., 2021]; [Song, X., et al., 2019]; [Kumar, P., et al., 2018]).

[3] = tested on: HepG2 cell line; test: SRB growth inhibition assay, anticancer efficacy; format: cell-based; settings: Homo sapiens, HepG2, 48 h, 10-80 μg/ml, read-out: GI50 (growth inhibitory concentration)
Procedure: National Cell Repository of NCCS (Pune, India) provided the HepG2 cell line, which was then grown in our cell culture lab for further in vitro assays. The liver cancer cell lines were grown in a T-75 flask for 24 h at 37°C, 5% CO2, and absolute humidity equal to 100% in the Roswell Park Memorial Institute (RPMI)-1640 media with 10% fetal bovine serum and 2 mM L-glutamine. The cells were collected by centrifugation and incubated at a density of 5×10^3 cells/well onto 96 well plates to measure the growth. The test samples were distributed in dimethyl sulfoxide at 100 mg/ml concentration, diluted to 1 mg/ml equivalent drug concentration in distilled H2O. […] After removing the attached dye with 10 mM Trizma base, absorbance was measured at 540 nm using a 690 nm reference. The findings were acquired in triplicate on different plates, and the mean of the three trials was determined. The % cell growth was measured using absorbance data (time zero [Tz], control growth (C), and test growth in the presence of drug at different concentrations [Ti]. The % growth inhibition was calculated using the following formula Ti−Tz/C−Tz×100 for concentrations for which Ti≥Tz […]
It was shown that the quantity of protein formation was reduced by 50% at a medication concentration of […]. […]

COc1cc2oc(=O)cc(-c3ccccc3)c2cc1O [DL, 6-hydroxy-7-methoxy-4-phenyl-2H-cromen-2-one]
AUC(0-inf) ([1]; albino Wistar): 244 ± 10.3 µg·h/mL
Cmax ([1]; albino Wistar): 23100 ± 840 ng/mL
MRT ([1]; albino Wistar): 11.5 ± 1.01 h
Tmax ([1]; albino Wistar): 4 h
half-life ([1]; albino Wistar): 9.63 h
AUMC [1]: 2806.95 µg.h^2/ml
cumulative discharge (in vitro release) [2]: around 40.97 ± 3.01%
GI50 [3]: 20 µg/mL (≈ 74.6 µM)
